# Paper PMC10791743, “Selective CK1α degraders exert antiproliferative activity against a broad range of human cancer cell lines” (Nature Communications, 2024)
# Several values for one entry are separate records, joined by “and”; a condition that tells them apart may be missing. Equal values may be shown once.
# Key:
# MOLM-13 cells = assay: MOLM-13 cell viability assay (CTG, 72 h); type: cell-based, human; design: key to Cell viability in MOLM-13 cells / cell viability, dose-response replicate values: % viability = 100 − % activity, normalized to controls
# Description: The primary screen was performed in 384-well format using the CellTiter Glo (CTG) luminescent cell viability assay (Promega) as previously described. […] After overnight incubation at 37 °C in a humidified 5% CO2 incubator, cells were treated with compounds in dose–response format using a Pintool on a Biomek FX^P Laboratory Automation Workstation (Beckman Coulter). […] Luminescence signal was measured using an EnVision plate reader (PerkinElmer). […]
# number per well and incubated overnight at 37 °C in a humidified 5 % CO2 incubator. Compounds were transferred to the assay plate from a dose-response plate using a Labcyte Echo 650 Acoustic Liquid Handler (Beckman Coulter , USA). […]
# using Promega’s CellTiter-Glo reagent according to the manufacturer’s recommendation.
# Luminescence was measured on the Envision plate reader (PerkinElmer, USA). Raw luminescence relative light unit (RLU) values for each compound at each concentration were normalized to obtain % activity using the following equation (1): 100 × [(mean(negctrl) – compound)/(mean (negctrl) – mean (posctrl))]. The % activity was converted to % viability using the following equation (2):
# (100 – % activity), and then pooled from replicate experiments prior to fitting. Here, negctrl and posctrl refer to the negative (DMSO) and positive controls (staurosporine) on each plate. Dose-response curves were fit to the Hill equation using the GraphPad Prism (version 10). […]
# CK1α [1] = biological target: T1, CK1α (Homo sapiens, UniProt P48729+Q96SW2); assay: CK1α HiBiT live-cell kinetic degradation assay (HEK293 cells); type: cell-based; design: engineered by CRISPR/Cas9 to express endogenous CK1α (HEK293 cells) with a HiBiT tag; conditions: for Dmax at 0.111 µM: CK1, 0.111 uM; for Dmax at 0.111 µM / Dmax at 0.333 µM / Dmax at 1 µM / Dmax at 3 µM / Dmax at 10 µM: read-out: CK1a Percent Maximum Degradation; for Dmax at 0.333 µM: CK1, 0.333 uM; for Dmax at 1 µM: CK1, 1 uM; for Dmax at 3 µM: CK1, 3 uM; for Dmax at 10 µM: CK1, 10 uM; for DC50: HEK293, at 4 h
# Description: To measure cellular protein levels, we used cell lines that have been engineered by CRISPR/Cas9 to express endogenous CK1α (HEK293 cells) or IKZF1 (Jurkat cells) with a HiBiT tag, which when coupled with LgBiT expression forms NanoBiT, a bioluminescent protein that can be used for kinetic studies of protein degradation. […] Cell viability was also monitored with CellTiter Glo 2.0 (Promega) at the completion of the experiment to ensure that loss of protein was not a consequence of a loss of cell viability.
# IKZF1-HiBiT Jurkat LgBiT stable cells were seeded at 60,000 cells/well in 50% growth media/50% CO2 independent medium supplemented with 10% FBS and 1× Endurazine substrate. […] A dose–response curve was generated by performing 3-fold dilutions of each compound including a DMSO-only control in growth media. For live cell kinetic degradation assays, diluted compounds were added to CK1α and β-catenin plates and placed in a GloMax Discover (Promega, Cat. #GM3000) preheated to 37 °C or added to IKZF1 plates and placed in a CLARIOstar Plus (BMG LABTECH) preheated to 37 °C.
# Relative protein level was determined based on normalization to the DMSO control and reported at Fractional RLUs. Degradation rate and degradation maximums were calculated from Fractional RLUs as previously described[38] using GraphPad Prism software. β-catenin stabilization time of onset for each concentration curve was calculated in GraphPad Prism by fitting an unconstrained plateau followed by one phase association model using the equation below (Y = IF(X < X0, Y0,Y0+(Plateau−Y0)*(1−exp(−K*(X−X0))))). The parameter, X0 was used as time of onset for each compound concentration.
# CK1α [2] = biological target: T1, CK1α; assay: CK1α immunoblotting in MOLM-13 cells; type: cell-based; design: immunoblot analysis of CK1α in MOLM-13 cells following treatment with increasing concentrations of SJ7095 over 4 h; endogenous in cells; host or cells: MOLM-13 (DSMZ ACC 554); conditions: for Dmax: read-out: CK1α Dmax (immunoblot); for CK1a western blot quantification: CK1a data from blots in fig 2b
# Description: Frozen pellets of ~1 million cells were lysed in 150 µl of SDS lysis buffer (60 mM Tris/HCl pH 7, 10% glycerol, 2% SDS, 5% beta-mercaptoethanol, 0.02% bromophenol blue, 0.5% protease and phosphatase inhibitor cocktail (Sigma Aldrich)). When cells were resuspended, samples were heated for 3 min at 99 °C then put on ice. Samples were then fragmented by sonication for 10 0.5-s pulses (550 Sonic Dismembrator, Fisher Scientific) and heated again at 99 °C for 2 min. 15 μl of each sample was added to the wells of a 4–20% polyacrylamide gel (Bio-Rad). A mixture of 2 μl of Precision Plus Protein Unstained Standards and 2 μl of Precision Plus Protein All Blue Standards (Bio-Rad) was used for the size marker. After electrophoresis, gels were transferred to nitrocellulose membrane using the Bio-Rad Trans-Blot Turbo system on the mixed molecular weight setting. Membranes were blocked for 1 h in Li-Cor Intercept Blocking Buffer then probed overnight at 4 °C with primary antibody, at 1:1000 dilution or 1:2000 dilution for actin, in Li-Cor Intercept Antibody Diluent. The following morning, membranes were washed three times for 5 min with TBS + 0.05% Tween-20, probed with fluorescent secondary antibodies (goat anti-rabbit IRDye 800CW and goat anti-mouse IRDye 680RD, Li-Cor) for 1 h at room temperature in the dark at 1:10,000 dilution, and washed again 3 times. Blots were imaged with the Li-Cor Odyssey CLx and analyzed using Image Studio Version 5.2.
# [3] = MOLM-13, 4 h, read-out: CK1α DC50 (immunoblot)
# [4] = time course 0-8 hrs, relative to no treatment
# [5] = western blot quantification, relative to DMSO
# T1 sequence (P48729 whole entry): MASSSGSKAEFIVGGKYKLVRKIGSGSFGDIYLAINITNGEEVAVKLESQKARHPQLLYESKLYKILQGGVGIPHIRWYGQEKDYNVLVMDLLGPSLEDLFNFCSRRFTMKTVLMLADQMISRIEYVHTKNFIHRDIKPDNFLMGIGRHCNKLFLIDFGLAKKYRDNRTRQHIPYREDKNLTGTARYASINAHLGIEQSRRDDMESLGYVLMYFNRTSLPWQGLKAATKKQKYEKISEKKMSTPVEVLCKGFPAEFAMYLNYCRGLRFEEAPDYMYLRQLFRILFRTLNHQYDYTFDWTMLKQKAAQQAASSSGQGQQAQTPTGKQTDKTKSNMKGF
# T1 sequence (Q96SW2 whole entry): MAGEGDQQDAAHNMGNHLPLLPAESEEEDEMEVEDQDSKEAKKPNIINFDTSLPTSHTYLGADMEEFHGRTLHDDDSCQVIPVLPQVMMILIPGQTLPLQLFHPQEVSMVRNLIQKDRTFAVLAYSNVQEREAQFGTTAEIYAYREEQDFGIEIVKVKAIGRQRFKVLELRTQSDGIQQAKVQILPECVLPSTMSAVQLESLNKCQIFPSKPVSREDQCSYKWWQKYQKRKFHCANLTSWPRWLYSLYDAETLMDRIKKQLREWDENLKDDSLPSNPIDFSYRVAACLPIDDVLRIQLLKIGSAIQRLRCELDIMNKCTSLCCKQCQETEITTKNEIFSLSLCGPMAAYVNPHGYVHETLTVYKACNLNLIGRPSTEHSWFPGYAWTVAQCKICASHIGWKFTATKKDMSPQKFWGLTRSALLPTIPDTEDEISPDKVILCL
# T1 sequence (Q16531 whole entry partner): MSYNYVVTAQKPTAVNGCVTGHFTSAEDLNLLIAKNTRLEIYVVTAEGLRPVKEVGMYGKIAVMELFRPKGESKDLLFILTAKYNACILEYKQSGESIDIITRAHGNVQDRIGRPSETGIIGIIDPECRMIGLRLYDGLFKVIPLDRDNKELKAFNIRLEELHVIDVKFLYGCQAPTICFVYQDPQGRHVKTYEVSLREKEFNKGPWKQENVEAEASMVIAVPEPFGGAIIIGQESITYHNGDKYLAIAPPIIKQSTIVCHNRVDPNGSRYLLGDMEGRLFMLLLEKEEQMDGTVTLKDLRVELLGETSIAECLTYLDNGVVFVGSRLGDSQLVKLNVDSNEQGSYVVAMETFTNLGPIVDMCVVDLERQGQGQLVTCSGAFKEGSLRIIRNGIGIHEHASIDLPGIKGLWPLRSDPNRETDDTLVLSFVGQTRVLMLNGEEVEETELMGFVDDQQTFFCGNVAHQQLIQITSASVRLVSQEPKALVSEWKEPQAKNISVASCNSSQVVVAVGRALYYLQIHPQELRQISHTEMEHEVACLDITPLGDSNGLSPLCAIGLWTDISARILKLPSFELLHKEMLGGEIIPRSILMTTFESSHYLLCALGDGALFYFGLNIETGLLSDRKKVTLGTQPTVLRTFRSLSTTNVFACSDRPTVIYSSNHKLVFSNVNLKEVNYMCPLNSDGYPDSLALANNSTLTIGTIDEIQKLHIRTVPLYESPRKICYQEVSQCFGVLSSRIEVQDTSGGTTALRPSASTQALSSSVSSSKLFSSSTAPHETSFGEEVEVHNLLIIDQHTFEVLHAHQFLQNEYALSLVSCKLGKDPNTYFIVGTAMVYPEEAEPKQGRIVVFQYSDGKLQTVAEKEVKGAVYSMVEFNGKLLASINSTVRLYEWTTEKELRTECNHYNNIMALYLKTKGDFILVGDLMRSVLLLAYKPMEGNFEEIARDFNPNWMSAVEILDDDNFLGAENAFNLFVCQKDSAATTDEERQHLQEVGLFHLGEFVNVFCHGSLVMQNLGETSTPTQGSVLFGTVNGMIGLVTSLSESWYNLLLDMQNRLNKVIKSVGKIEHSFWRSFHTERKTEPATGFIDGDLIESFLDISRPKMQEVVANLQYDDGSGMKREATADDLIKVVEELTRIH
smiles,measurement,setting,value
Cc1cccc(C(=O)Nc2ccc3c(c2)CN(C2CCC(=O)NC2=O)C3=O)c1 (stereo not shown) [SJ0040],Cell viability in MOLM-13 cells,"MOLM-13 cells; SJ0040 series, Conc 0.000596098",72.251 and 62.2023 and 81.3879
same,Cell viability in MOLM-13 cells,"MOLM-13 cells; SJ0040 series, Conc 0.0017883",82.0109 and 75.8813 and 72.6272
same,Cell viability in MOLM-13 cells,"MOLM-13 cells; SJ0040 series, Conc 0.00536488",61.7374 and 60.0676 and 62.6116
same,Cell viability in MOLM-13 cells,"MOLM-13 cells; SJ0040 series, Conc 0.0160947",47.3097 and 40.7507 and 48.8062
same,Cell viability in MOLM-13 cells,"MOLM-13 cells; SJ0040 series, Conc 0.048284",27.7074 and 26.3493 and 30.1451
same,Cell viability in MOLM-13 cells,"MOLM-13 cells; SJ0040 series, Conc 0.144852",14.8484 and 15.2529 and 14.8047
same,Cell viability in MOLM-13 cells,"MOLM-13 cells; SJ0040 series, Conc 0.434556",9.851 and 9.013 and 9.549
same,Cell viability in MOLM-13 cells,"MOLM-13 cells; SJ0040 series, Conc 1.30367",6.737 and 6.253 and 6.807
same,Cell viability in MOLM-13 cells,"MOLM-13 cells; SJ0040 series, Conc 3.911",4.756 and 5.128 and 7.933
same,CK1a Degradation Rate Constant,CK1α [1]; 0.111 uM,1.349 λ/hour
same,CK1a Percent Maximum Degradation,"CK1α [1]; 0.111 uM, listed as SJ10040",87.09% and 81.49% and 82.97%
same,CK1a Degradation Rate Constant,CK1α [1]; 0.333 uM,1.489 λ/hour
same,CK1a Percent Maximum Degradation,"CK1α [1]; 0.333 uM, listed as SJ10040",81.30% and 83.99% and 85.23%
same,CK1a Degradation Rate Constant,CK1α [1]; 1 uM,1.645 λ/hour
same,CK1a Percent Maximum Degradation,"CK1α [1]; 1 uM, listed as SJ10040",85.32% and 82.59% and 87.28%
same,CK1a Degradation Rate Constant,CK1α [1]; 3 uM,1.768 λ/hour
same,CK1a Percent Maximum Degradation,"CK1α [1]; 3 uM, listed as SJ10040",84.24% and 83.34% and 82.73%
same,CK1a Degradation Rate Constant,CK1α [1]; 10 uM,1.807 λ/hour
same,CK1a Percent Maximum Degradation,"CK1α [1]; 10 uM, replicates, listed as SJ10040",89.47% and 88.18% and 86.50%
same,Dmax at 0.111 µM,CK1α [1],85.1%
same,Dmax at 0.333 µM,CK1α [1],88.2%
same,Dmax at 1 µM,CK1α [1],87.9%
same,Dmax at 3 µM,CK1α [1],87.3%
same,Dmax at 10 µM,CK1α [1]; replicates,89%
same,CK1α degradation depth (HiBiT),CK1α [1]; HEK293,near-complete degradation
same,DC50,CK1α [1],10 nM
same,DC50,CK1α [2]; [3],11 nM
same,Dmax,"CK1α [2]; MOLM-13, 4 h",88%
O=C1CCC(N2Cc3cc(Nc4noc5ccccc45)ccc3C2=O)C(=O)N1 (stereo not shown) [SJ3149],Effect on MOLM-13 cell viability (cytotoxicity),MOLM-13 cells; CTG 72 h,more robust effect on the viability of MOLM-13 cells
same,IC50,"MOLM-13 cells; Homo sapiens, MOLM-13, CTG 72 h, read-out: IC50, MOLM-13 cell growth/viability",13 nM
same,Cell viability in MOLM-13 cells,"MOLM-13 cells; SJ3149 series, Conc 0.000508",101.693 and 103.275 and 101.343
same,Cell viability in MOLM-13 cells,"MOLM-13 cells; SJ3149 series, Conc 0.00152416",101.046 and 101.638 and 102.894
same,Cell viability in MOLM-13 cells,"MOLM-13 cells; SJ3149 series, Conc 0.00457247",93.8551 and 92.4498 and 91.2385
same,Cell viability in MOLM-13 cells,"MOLM-13 cells; SJ3149 series, Conc 0.0137174",62.1406 and 65.1592 and 63.0989
same,Cell viability in MOLM-13 cells,"MOLM-13 cells; SJ3149 series, Conc 0.0411523",25.3582 and 28.4617 and 24.9569
same,Cell viability in MOLM-13 cells,"MOLM-13 cells; SJ3149 series, Conc 0.123457",6.148 and 8.382 and 8.141
same,Cell viability in MOLM-13 cells,"MOLM-13 cells; SJ3149 series, Conc 0.37037",3.25 and 4.028 and 3.791
same,Cell viability in MOLM-13 cells,"MOLM-13 cells; SJ3149 series, Conc 1.11111",2.026 and 2.1314 and 2.9156
same,Cell viability in MOLM-13 cells,"MOLM-13 cells; SJ3149 series, Conc 3.33333",1.946 and 1.78 and 2.069
same,Cell viability in MOLM-13 cells,"MOLM-13 cells; SJ3149 series, Conc 10",0.7978 and 0.8668 and 1.097
same,CK1a Degradation Rate Constant,CK1α [1]; 0.111 uM,2.872 λ/hour
same,CK1a Percent Maximum Degradation,CK1α [1]; 0.111 uM,90.93% and 90.25% and 91.10%
same,CK1a Degradation Rate Constant,CK1α [1]; 0.333 uM,3.25 λ/hour
same,CK1a Percent Maximum Degradation,CK1α [1]; 0.333 uM,91.59% and 92.14% and 92.11%
same,CK1a Degradation Rate Constant,CK1α [1]; 1 uM,3.334 λ/hour
same,CK1a Percent Maximum Degradation,CK1α [1]; 1 uM,92.68% and 92.87% and 92.05%
same,CK1a Degradation Rate Constant,CK1α [1]; 3 uM,3.448 λ/hour
same,CK1a Percent Maximum Degradation,CK1α [1]; 3 uM,93.01% and 93.23% and 92.96%
same,CK1a Degradation Rate Constant,CK1α [1]; 10 uM,3.507 λ/hour
same,CK1a Percent Maximum Degradation,"CK1α [1]; 10 uM, replicates",95.39% and 95.59% and 95.66%
same,Dmax at 0.111 µM,CK1α [1],90.6%
same,Dmax at 0.333 µM,CK1α [1],91.9%
same,Dmax at 1 µM,CK1α [1],92.6%
same,Dmax at 3 µM,CK1α [1],92.7%
same,Dmax at 10 µM,CK1α [1]; replicates,95.4%
same,CK1α degradation depth (HiBiT),CK1α [1]; HEK293,near-complete degradation
same,CK1α degradation rate relative to SJ0040,CK1α [1]; HEK293,~2 fold
same,CK1α degradation rate relative to lenalidomide,CK1α [1]; HEK293,~10 fold
same,DC50,CK1α [1],6 nM
same,CK1α degradation within the first 30 min,CK1α [1]; at most concentrations,> 50%
same,"CK1α protein, time course","CK1α [2]; MOLM-13, 1 μM, 0-8 h",near complete loss of CK1α protein by 1 h
same,DC50,CK1α [2]; [3],3.7 nM and 4 nM
same,Dmax,"CK1α [2]; MOLM-13, 4 h",95%
same,CK1a western blot quantification,"CK1α [2]; SJ3149 0.001 uM, relative to DMSO",0.9925 and 0.9819 and 0.7065
same,CK1a western blot quantification,"CK1α [2]; SJ3149 0.01 uM, relative to DMSO",0.3125 and 0.2648 and 0.1727
same,CK1a western blot quantification,"CK1α [2]; SJ3149 0.1 uM, relative to DMSO",0.1087 and 0.1074 and 0.06013
same,CK1a quantified protein expression (western blot),"CK1α [2]; time 8 hrs, relative to no treatment, 3 western blots",0.0615 and 0.09529 and 0.04877
same,"IC50 (line fit, sigmoidal 4PL) of CK1a expression versus time","CK1α [2]; time course 0-8 hrs, X axis is time",0.403
same,"Bottom (line fit, sigmoidal 4PL) of CK1a expression versus time",CK1α [2]; [4],0.04517
same,"Top (line fit, sigmoidal 4PL) of CK1a expression versus time",CK1α [2]; [4],0.8089
same,DC50,"CK1α [2]; western blot quantification, blots in fig 2b, read-out: IC50 (sigmoidal 4PL fit) of CK1a protein level",3.75 nM
same,Bottom (sigmoidal 4PL fit) of CK1a protein level,CK1α [2]; [5],0.07909
same,Top (sigmoidal 4PL fit) of CK1a protein level,CK1α [2]; [5],1.004
